Measured values from US10653780B2, “Amino lipids and methods for the delivery of nucleic acids” (ARBUTUS BIOPHARMA CORPORATION, priority 2008, dated 2020).
Read-outs that look alike come from different tables or passages of the source. Marks after values point to notes of the source that are not given here.

Key:
[1] = system: Factor VII (FVII); conditions: for survival: 15 mg/kg dose, mice; for FVII ED50: Table 11; for fold less active than DLinDMA: mouse FVII model
From the text: It is well established that in vivo RNAi silencing of specific hepatocyte proteins can be achieved following intravenous (i.v.) administration of siRNA's encapsulated in, or associated with, select nanoparticles designed for intracellular delivery. […] In this Example, rational design in combination with in vivo screening were applied to systematically modify the structure of DLinDMA and identify molecular features that enhance or reduce cationic lipid potency. More than 30 lipids were synthesized and incorporated into nucleic acid-lipid particles, i.e., lipid nanoparticles (LN) encapsulating an siRNA (LN-siRNA) targeting Factor VII (FVII), a blood clotting component synthesized and secreted by hepatocytes that is readily measured in serum. LN-siRNA systems were prepared using the same process, lipid molar ratios and particle size to minimize effects on activity resulting from formulation characteristics other than the cationic lipid. Each formulation was administered as a single bolus injection over a range of doses enabling an estimate of the siRNA dose required to reduce FVII serum protein concentrations by 50% after 24 h (ED50).
FVII activity was evaluated in FVII siRNA-treated animals at 24 hours after intravenous (bolus) injection in C57BL/6 mice or 48 hours after intravenous (bolus) injection in SD rats. Six to 8 week old, female C57Bl/6 mice were obtained from Charles River Laboratories and acclimated for one week prior to use in studies. Animals were held in a pathogen-free environment and all procedures involving animals were performed in accordance with the guidelines established by the Canadian Council on Animal Care.
LN-siRNA systems containing Factor VII siRNA were diluted to the appropriate concentrations in sterile phosphate buffered saline immediately prior to use, and the formulations were administered intravenously via the lateral tail vein in a total volume of 10 ml/kg. After 24 h, animals were anaesthetised with Ketamine/Xylazine and blood was collected by cardiac puncture and processed to serum (Microtainer Serum Separator Tubes; Becton Dickinson, Franklin Lakes, N.J., USA). Serum was tested immediately or stored at −70° C. for later analysis for serum Factor VII levels.
FVII was measured using a commercially available kit (Biophen FVII Kit™; Aniara Corp., Mason, Ohio), following the manufacturer's instructions at a microplate scale. FVII reduction was determined against untreated control animals, and the results were expressed as % Residual FVII. Five dose levels (0.1, 0.3, 0.5, 1.0, and 3.0 mg/kg) were typically used.
Serum Factor VII levels were determined using the colorimetric Biophen VII assay kit (Anaira, USA). Briefly, serially diluted pooled control serum (200%-3.125%) and appropriately diluted plasma samples from treated animals were analyzed using the Biophen VII kit according to manufacturer's instructions in 96-well, flat bottom, non-binding polystyrene assay plates (Corning, Corning, N.Y.) and absorbance at 405 nm was measured. A calibration curve was generated using the serial diluted control serum and used to determine levels of Factor VII in serum from treated animals.
Initial studies were performed in eight to 10 week old, female C57BL/6 mice in two stages. In the first stage, the activity associated with the benchmark lipid DLinDMA was compared to the activity associated with modified forms of DLinDMA.

[2] = Pharmacokinetic and liver analysis of Cy-3 labeled siRNA in LN-siRNA systems; type: in vivo
From the text: A fluorescently labeled siRNA (Cy-3 labeled luciferase siRNA, Alnylam Pharmaceuticals) was used to measure the siRNA content in plasma and liver after iv administration of LN-siRNA systems. The measurements were done by first extracting the Cy3-siRNA from the protein-containing biological matrix and then analyzing the amount of Cy-3 label in the extract by fluorescence. Two extraction methods were used, a chloroform/methanol mixture for the plasma samples and a commercial phenol/chloroform mixture (Trizol® reagent) with the tissue samples.
For plasma, blood was collected in EDTA-containing Vacutainer tubes and centrifuged at 1000×g for 10 min at 4-8° C. to isolate the plasma. The plasma was transferred to an eppendorf tube and either assayed immediately or stored in a −30° C. freezer. An aliquot of the plasma (100 μL maximum) was diluted to 500 μL with PBS (145 mM NaCl, 10 mM phosphate, pH 7.5), methanol (1.05 mL and chloroform (0.5 mL) was added, and the sample vortexed to obtain a clear, single phase solution. Water (0.5 mL) and chloroform (0.5 mL) was then added and the resulting emulsion sustained by mixing periodically for a minimum of 3 minutes. The mixture was centrifuged at 3000 rpm for 20 minutes and the top aqueous phase containing the Cy-3-label transferred to a new test tube. The fluorescence of the solution was measured using an SLM Fluorimeter at an excitation wavelength of 550 nm (2 nm bandwidth) and emission wavelength of 600 nm (16 nm bandwidth). A standard curve was generated by spiking aliquots of plasma from untreated animals with the Cy-3-siRNA containing formulation (0 to 15 μg/mL), and the sample processed as indicated above.
For liver, sections (400-500 mg) of tissue from saline-perfused animals was accurately weighed and homogenized in 1 mL of Trizol using Fastprep tubes. An aliquot of the homogenate (typically equivalent to 50 mg of tissue) was transferred to an eppendorf tube and additional Trizol added to 1 mL final. Chloroform (0.2 mL) was added, and the solution was mixed and incubated for 2-3 min before being centrifuged for 15 min at 12,000×g. An aliquot (0.5 mL) of the top Cy-3-containing aqueous phase was diluted with 0.5 mL of PBS and the fluorescence of the sample measured as described above.
The correlation between levels of siRNA delivered to the liver and FVII reduction was determined by encapsulating Cy-3 labeled siRNA in the selection of LN-siRNA systems covering a spectrum of in vivo activities shown in Table 8. Cy-3 fluorescence was measured in plasma and liver tissue 0.5 and 3.0 h post injection.

[3] = In situ determination of apparent pKa using TNS fluorescence titration
[4] = Table 5, siRNA dose reducing serum FVII protein by 50% at 24 h, PFV LN-siRNA 40/10/40/10
[5] = Table 3, siRNA dose reducing serum FVII protein by 50% at 24 h, single i.v. bolus, PFV LN-siRNA 40/10/40/10
[6] = Table 8, FVII ED50 of the LN-siRNA system
[7] = siRNA dose reducing serum FVII protein by 50% at 24 h, PFV LN-siRNA 40/10/40/10
[8] = Table 6, siRNA dose reducing serum FVII protein by 50% at 24 h, PFV LN-siRNA 40/10/40/10
[9] = Table 4, siRNA dose reducing serum FVII protein by 50% at 24 h, PFV LN-siRNA 40/10/40/10
[10] = Table 7, siRNA dose reducing serum FVII protein by 50% at 24 h, PFV LN-siRNA 40/10/40/10

CCCCCCCC/C=C\CCCCCCCC(=O)OCC(C[N+](C)(C)C)OC(=O)CCCCCCC/C=C\CCCCCCCC.[Cl-] (centres unmarked) [DOTAP.Cl, 1,2-Dioleyloxy-3-trimethylaminopropane chloride salt, reference compound]
ED50 [1, 4]: >25 mg/kg

CCCCC/C=C\C/C=C\CCCCCCCC(=O)OCC(C[N+](C)(C)C)OC(=O)CCCCCCC/C=C\C/C=C\CCCCC.[Cl-] (centres unmarked) [DLinTAP.Cl]
ED50 [1, 4]: >25 mg/kg

CCCCC/C=C\C/C=C\CCCCCCCCOCC(CN1CCOCC1)OCCCCCCCC/C=C\C/C=C\CCCCC (centres unmarked) [DLinMA, 1,2-Dilinoleyloxy-3-morpholinopropane]
ED50 [1, 5]: 12 to 25 mg/kg
ED50 [1, 6]: 12 to 25 mg/kg
ED50 [1, 7]: 12 to 25 mg/kg

CCCCCCCC/C=C\CCCCCCCCNC(=O)OCC(CN(C)C)OC(=O)NCCCCCCCC/C=C\CCCCCCCC (centres unmarked) [DO-C-DAP]
FVII activity at maximum dose tested ([1]; 10 mg/kg maximum dose): inactive
ED50 [1, 4]: >10 mg/kg

CCCCC/C=C\C/C=C\CCCCCCCCN(CCCCCCCC/C=C\C/C=C\CCCCC)CC(O)CO (centres unmarked) [DLinAP]
ED50 [1, 4]: 5 to 12 mg/kg
ED50 [1, 6]: 5 to 12 mg/kg
ED50 [1, 7]: 5 to 12 mg/kg

CCCCC/C=C\C/C=C\CCCCCCCCC1(CCCCCCCC/C=C\C/C=C\CCCCC)OCC([N+](C)(C)C)O1.[Cl-] (centres unmarked) [DLin-K-TMA.Cl, 2,2-Dilinoleyl-4-trimethylamino-[1,3]-dioxolane Chloride]
FVII activity ([1]; 5 mg/kg): No activity observed
body weight ([1]; 5 mg/kg, data not shown): significant weight loss
FVII activity ([1]; 5 mg/kg, listed as DLin-K-TMA): No activity was observed
survival [1]: lethal
survival ([1]; listed as DLin-K-TMA): did not survive
ED50 [1, 8]: >5^a mg/kg

CCCCC/C=C\C/C=C\CCCCCCCCC1(CCCCCCCC/C=C\C/C=C\CCCCC)OCC(CN(C)C)O1 (stereo not drawn) [DLin-K-DMA (+)]
ED50 [1, 7]: ~0.3 mg/kg

CCCCC/C=C\C/C=C\CCCCCCCCOC(COC(=O)CCCCCCC/C=C\C/C=C\CCCCC)CN(C)C (centres unmarked) [DLin-2-DMAP, 1-Linoleoyl-2-linoeyloxy-3-dimethylaminopropane]
ED50 [1, 9]: 5 to 12 mg/kg
ED50 [1, 6]: 5 to 12 mg/kg
Liver Cy-3 siRNA ([2]; 0.5 h post injection): 20.5 % injected dose
Plasma Cy-3 siRNA ([2]; 0.5 h post injection): 17.5 % injected dose
Liver Cy-3 siRNA ([2]; 3.0 h post injection): 2.5 % injected dose
Plasma Cy-3 siRNA ([2]; 3.0 h post injection): 8.8 % injected dose

CCCCC/C=C\C/C=C\CCCCCCCCOCC(COC(=O)CN(C)C)OCCCCCCCC/C=C\C/C=C\CCCCC (centres unmarked) [DLinDAC, 1,2-Dilinoleyloxy-3-(dimethylamino) acetoxypropane]
ED50 [1, 5]: 5 to 12 mg/kg
ED50 [1, 6]: 12 to 25 mg/kg

CCCCC/C=C\C/C=C\CCCCCCCCC1(CCCCCCCC/C=C\C/C=C\CCCCC)OCC(CN(C)C)CO1 [DLin-K6-DMA, 2,2-dilinoleyl-5-dimethylaminomethyl-[1,3]-dioxane]
ED50 [1, 10]: ~0.3 mg/kg
FVII ED50 [1]: ~0.3 mg/kg
pKa [3]: 6.2

CCCCC/C=C\C/C=C\CCCCCCCCSCC(CN(C)C)SCCCCCCCC/C=C\C/C=C\CCCCC (centres unmarked) [DLin-S-DMA, 1 ,2-Dilinoleylthio-3-dimethylaminopropane]
ED50 [1, 9]: 12 to 25 mg/kg
ED50 [1, 6]: 12 to 25 mg/kg

CCCCCCCC/C=C\CCCCCCCCOCC(CN(C)C)OCCCCCCCC/C=C\CCCCCCCC (centres unmarked) [DODMA, reference compound]
ED50 [1, 4]: 2 to 5 mg/kg
fold less active than DLinDMA [1]: 2 to 5 fold

2,2-dilinoleyl-4-N-morpholino-[1,3]-dioxolane [DLin-K-MA]
FVII activity at maximum dose tested ([1]; 15 mg/kg maximum dose): inactive
ED50 [1, 8]: >15 mg/kg
FVII ED50 [1]: >15 mg/kg

CCCCCCCCCCCCCCCCCCC1(CCCCCCCCCCCCCCCCCC)OCC(CN(C)C)O1 (centres unmarked) [DS-K-DMA]
ED50 [1, 10]: ~8.0 mg/kg
ED50 [1, 7]: ~8.0 mg/kg

CCCCCCCC/C=C\CCCCCCCC(=O)OCC(CN(C)C)OC(=O)CCCCCCC/C=C\CCCCCCCC (centres unmarked) [DODAP, 1,2-dioleoyl-3-dimethylammonium propane, reference compound]
ED50 [1, 4]: >25 mg/kg
fold less active than DLinDMA [1]: more than 25 fold

CCCCC/C=C\C/C=C\CCCCCCCCOCC(CN1CCN(C)CC1)OCCCCCCCC/C=C\C/C=C\CCCCC (centres unmarked) [DLinMPZ, 1,2-Dilinoleyloxy-3-(N-methylpiperazino) propane]
ED50 [1, 5]: 2 to 5 mg/kg
ED50 [1, 6]: 2 to 5 mg/kg

CCCCC/C=C\C/C=C\CCCCCCCCNC(=O)OCC(CN(C)C)OC(=O)NCCCCCCCC/C=C\C/C=C\CCCCC (centres unmarked) [DLin-C-DAP, 1,2-Dilinoleylcarbamoyloxy-3-dimethylaminopropane]
ED50 [1, 9]: 12 to 25 mg/kg
ED50 [1, 6]: 12 to 25 mg/kg
Liver Cy-3 siRNA ([2]; 0.5 h post injection): 28.5 % injected dose
Plasma Cy-3 siRNA ([2]; 0.5 h post injection): 69.4 % injected dose
Liver Cy-3 siRNA ([2]; 3.0 h post injection): 13.5 % injected dose
Plasma Cy-3 siRNA ([2]; 3.0 h post injection): 19.0 % injected dose

CCCCCCCC/C=C\CCCCCCCCC1(CCCCCCCC/C=C\CCCCCCCC)OCC(CN(C)C)O1 (centres unmarked) [DO-K-DMA]
ED50 [1, 10]: ~1.0 mg/kg
ED50 [1, 7]: ~1.0 mg/kg

CCCC/C=C\CCCCCCCC(=O)OCC(CN(C)C)OC(=O)CCCCCCC/C=C\CCCC (centres unmarked) [DMDAP]
FVII activity at maximum dose tested ([1]; 10 mg/kg maximum dose): no activity was observed
ED50 [1, 4]: >10 mg/kg

1,2-Dilinoleyloxy-3-(2-N,N-dimethylamino) ethoxypropane [DLin-EG-DMA]
ED50 [1, 5]: 5 to 12 mg/kg

CCCCC/C=C\C/C=C\CCCCCCCCC(CCCCCCCC/C=C\C/C=C\CCCCC)OC(=O)CCN(C)C [DLin-M-DMA, Dilinoleylmethyl 3-Dimethylaminopropionate]
ED50 [1, 10]: ~0.7 mg/kg
ED50 [1, 7]: ~0.7 mg/kg

CCCCC/C=C\C/C=C\CCCCCCCCC1(CCCCCCCC/C=C\C/C=C\CCCCC)OC(CN(C)C)C(CN(C)C)O1 (centres unmarked) [DLin-K^2-DMA, 2,2-Dilinoleyl-4,5-bis(dimethylaminomethyl)-[1,3]-dioxolane]
ED50 [1, 8]: ~0.4 mg/kg

1,2-Dilinoleyloxy-3-trimethylaminopropane chloride [DLinTMA.Cl]
ED50 [1, 5]: 2 to 5 mg/kg
